Laboratory results from US20060089335A1, “Compositions and methods for enhancing cognitive function and synaptic plasticity” (priority 2003, published 2006).

Conditions: rat, in vivo

[Mg+2] [Mg^++]
general status of the rats (body weight, mobility): did not observe any significant change in the general status
